From patent publication US7601687B2, “Mechanism for identifying drugs for the treatment of type II diabetes” (BioCrine AB, priority 2006, dated 2009)

Tested on: rat βGK promoter
Assay: βGK promoter-driven GFP expression in co-transfected human islet cells
Assay type: cell-based
Settings: 5 mU/ml insulin for 5 min, sub-stimulatory glucose
Method: Data are presented as the ratio of fluorescence obtained at minutes 240 and 60 and represent mean values ±S.E. (n=11).
Detection of fluorescence by digital imaging fluorescence microscopy was performed as described previously (Leibiger et al., 1998a; Leibiger et al., 1998b). Briefly, transfected cells were grown on 24-mm glass coverslips. After stimulation the coverslips were placed into a perifusion chamber which was mounted on an inverted microscope (Zeiss Axiovert 135TV). Temperature was kept at 37° C. and the cells were perfused with RPMI 1640 medium. The objective lens used was a Zeiss-Fluar ×40/1.30 oil Imm Korr. Fluorescence imaging was performed with a cooled charged-coupled device camera (CH250 with KAF 1400, Photometrics, Tucson, Ariz.) connected to an imaging system (Inovision) with fluorescence excitation from a SPEX fluorolog-2 CM1T11I spectrofluorometer (Spex Industries). […]
On-line monitoring was initiated 60 min following the start of stimulation and the 60-min value of GFP- or DsRed-fluorescence was set to 1.0. Cells to be monitored were chosen randomly at minute 60 from six fields of vision and fluorescence was monitored up to minute 240. By overlaying the fluorescence and phase-contrast images, the position of cells on the coverslip could be checked. Fluorescence intensity was calculated by using the ISee-software for UNIX (Inovision Corporation).

insulin
βGK promoter-driven GFP expression upon insulin stimulation: up-regulation
